{"source": "paper PMC4301837", "about": "“Aldosterone synthase inhibition: cardiorenal protection in animal disease models and translation of hormonal effects to human subjects” (Journal of Translational Medicine, 2014)", "key": {"[1]": {"test_system": "ACTH-stimulated aldosterone, cortisol and precursors", "test": "Human ACTH (cortisol) stimulation test, multiple-dose phase", "assay_type": "in vivo"}, "healthy male volunteers": {"test_system": "healthy male volunteers", "test": "Human safety and tolerability", "assay_type": "in vivo"}, "[2]": {"details": "dogs, ref D. Rigel, personal communication, cited from earlier work"}, "[3]": {"test_system": "patients with Cushing’s disease", "details": "12 patients, 2–50 mg twice daily, cited from earlier work"}, "[4]": {"test_system": "ACTH-stimulated plasma aldosterone and cortisol", "test": "animal or person", "details": "Macaca fascicularis"}, "[5]": {"test_system": "Ang-II-stimulated aldosterone synthesis", "test": "animal or person", "details": "Rattus norvegicus, po, read-out: ED50 for inhibiting Ang-II-stimulated aldosterone response"}, "[6]": {"target": "recombinant rat aldosterone synthase (CYP11B2) (Rattus norvegicus, UniProt P30099)", "sequence (P30099 35-510)": "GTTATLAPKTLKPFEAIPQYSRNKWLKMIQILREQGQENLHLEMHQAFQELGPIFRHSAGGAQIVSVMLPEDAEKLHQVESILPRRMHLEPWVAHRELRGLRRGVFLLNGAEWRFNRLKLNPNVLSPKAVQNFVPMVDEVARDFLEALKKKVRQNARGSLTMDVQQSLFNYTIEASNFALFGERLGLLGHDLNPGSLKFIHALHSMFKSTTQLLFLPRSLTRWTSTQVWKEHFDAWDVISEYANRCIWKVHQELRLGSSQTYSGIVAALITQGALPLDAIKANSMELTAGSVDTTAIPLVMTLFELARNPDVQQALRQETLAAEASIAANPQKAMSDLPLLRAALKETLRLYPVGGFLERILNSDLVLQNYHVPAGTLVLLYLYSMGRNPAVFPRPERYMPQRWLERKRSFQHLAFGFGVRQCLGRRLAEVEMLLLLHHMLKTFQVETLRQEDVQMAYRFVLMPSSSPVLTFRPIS", "test": "biochemical"}, "[7]": {"target": "recombinant human 11β-hydroxylase (CYP11B1) (Homo sapiens, UniProt P15538)", "sequence (P15538 25-503)": "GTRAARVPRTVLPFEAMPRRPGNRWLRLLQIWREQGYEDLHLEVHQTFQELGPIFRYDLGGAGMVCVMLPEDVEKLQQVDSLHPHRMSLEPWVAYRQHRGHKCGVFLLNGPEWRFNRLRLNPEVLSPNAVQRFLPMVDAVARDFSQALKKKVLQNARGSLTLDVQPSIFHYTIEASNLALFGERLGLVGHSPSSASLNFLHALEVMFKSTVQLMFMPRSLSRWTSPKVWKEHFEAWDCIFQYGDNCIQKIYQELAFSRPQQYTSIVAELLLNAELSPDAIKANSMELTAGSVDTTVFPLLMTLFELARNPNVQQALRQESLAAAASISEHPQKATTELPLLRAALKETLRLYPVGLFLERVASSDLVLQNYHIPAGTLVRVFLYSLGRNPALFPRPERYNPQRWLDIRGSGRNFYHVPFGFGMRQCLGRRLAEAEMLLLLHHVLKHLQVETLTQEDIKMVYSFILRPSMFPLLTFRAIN", "details": "Lineweaver–Burk plots; at higher concentrations"}, "[8]": {"test_system": "ACTH-stimulated aldosterone and corticosterone synthesis", "details": "rat, ACTH stimulation"}, "[9]": {"details": "human, 0.5–3 mg once daily oral"}, "in vitro": {"test": "in vitro", "details": "monkey, plasma"}, "[10]": {"test_system": "ACTH-stimulated plasma aldosterone and cortisol"}, "human CYP11B2": {"test_system": "human CYP11B2", "design": "method as in PMID 24899257", "details": "recombinant hamster fibroblasts expressing human CYP11B1 and CYP11B2; read-out: IC50, inhibition of aldosterone synthesis; cited from earlier work"}}, "data": [{"smiles": "N#Cc1ccc([C@H]2CCc3cncn32)c(F)c1", "note": "[LCI699]", "values": [{"measurement": "peak reduction of ACTH-stimulated cortisol levels from baseline", "setting": "[1]; LCI699 0.5 mg, Day 6", "result": 1.8, "unit": "%"}, {"measurement": "effect on ACTH-stimulated 11-DOC levels", "setting": "[1]; LCI699 0.5 mg, eplerenone 100 mg", "result": "no significant effect"}, {"measurement": "maximal increase in ACTH-stimulated 11-DOC from baseline", "setting": "[1]; LCI699 1 mg, Day 6", "result": 95, "unit": "%"}, {"measurement": "peak reduction of ACTH-stimulated cortisol levels from baseline", "setting": "[1]; LCI699 1 mg, Day 6", "result": 11, "unit": "%"}, {"measurement": "effect on ACTH-stimulated cortisol response", "setting": "[1]; LCI699 1 mg, Day 13", "result": "attenuation of the ACTH-stimulated cortisol response"}, {"measurement": "maximal increase in ACTH-stimulated 11-DOC from baseline", "setting": "[1]; LCI699 3 mg, Day 6", "result": 407, "unit": "%"}, {"measurement": "peak increase in ACTH-stimulated 11-deoxycortisol from baseline", "setting": "[1]; LCI699 3 mg, Day 6", "result": 82, "unit": "%"}, {"measurement": "peak reduction of ACTH-stimulated cortisol levels from baseline", "setting": "[1]; LCI699 3 mg, Day 6", "result": 22, "unit": "%"}, {"measurement": "increase in ACTH-stimulated 11-DOC levels", "setting": "[1]; LCI699 3 mg, Day 13", "result": 168, "unit": "%"}, {"measurement": "peak increase in ACTH-stimulated 11-deoxycortisol from baseline", "setting": "[1]; LCI699 3 mg, Day 13", "result": 114, "unit": "%"}, {"measurement": "time to complete reversal of cortisol suppression after discontinuing", "setting": "[1]; LCI699 10 mg", "result": "4 to 9", "unit": "days"}, {"measurement": "effect on ACTH-stimulated cortisol", "setting": "[1]; LCI699 10 mg, Days 6 and 10", "result": "further suppressed"}, {"measurement": "peak inhibition of ACTH-stimulated aldosterone levels from baseline (Day −2)", "setting": "[1]; LCI699 0.5–3 mg, Day 6", "result": "41–64%"}, {"measurement": "effect on cortisol precursors (ACTH-stimulated)", "setting": "[1]; eplerenone 100 mg and lower doses of LCI699 (0.5, 1 mg), Day 6 or Day 13", "result": "no significant effect"}, {"measurement": "subjects with plasma sodium levels at or below 135 mmol/L", "setting": "healthy male volunteers; LCI699 0.5 mg, multiple-dose phase", "result": "two"}, {"measurement": "subjects with pre-specified markers of hypoaldosteronism (mild hyponatremia, postural tachycardia, decreased body weight), discontinued", "setting": "healthy male volunteers; LCI699 3 mg, multiple-dose", "result": "three"}, {"measurement": "subjects with plasma sodium levels at or below 135 mmol/L", "setting": "healthy male volunteers; LCI699 3 mg, multiple-dose phase", "result": "four"}, {"measurement": "tolerability", "setting": "healthy male volunteers; healthy subjects, single doses up to 200 mg, multiple doses", "result": "well tolerated"}, {"measurement": "adverse events considered severe (abnormal ACTH-stimulation test)", "setting": "healthy male volunteers; multiple-dose phase, LCI699 10 mg", "result": "only one adverse event"}, {"measurement": "changes in supine systolic or diastolic blood pressure or heart rate compared with placebo", "setting": "healthy male volunteers; single or multiple doses", "result": "no consistent changes"}, {"measurement": "oral bioavailability", "setting": "[2]; 1 mg/kg oral dose", "result": 96, "unit": "%"}, {"measurement": "half-life", "setting": "[2]", "result": "36 to 216", "unit": "min"}, {"measurement": "patients with urinary free cortisol below upper limit of normal", "setting": "[3]; 70 days", "result": 11, "unit": "patients"}, {"measurement": "tolerability", "setting": "[3]", "result": "well tolerated"}, {"measurement": "ED50", "setting": "[4]; po, read-out: ED50 for inhibition of ACTH-stimulated plasma aldosterone", "result": 0.013, "unit": "mg/kg"}, {"measurement": "EC50", "setting": "[4]; read-out: EC50 for inhibition of ACTH-stimulated plasma aldosterone", "result": "< 1", "unit": "nM"}, {"measurement": "ED50", "setting": "[5]", "result": 0.6, "unit": "mg/kg"}, {"measurement": "IC50", "setting": "[6]", "result": "160 ± 9", "unit": "nM"}, {"measurement": "mode of inhibition of 11β-hydroxylase", "setting": "[7]", "result": "reversible competitive inhibitor"}, {"measurement": "dose above which inhibition of stimulated plasma aldosterone shows an apparent plateau", "setting": "[8]; oral", "result": "> 10", "unit": "mg/kg"}, {"measurement": "Maximal reduction in plasma aldosterone from baseline", "setting": "[8]; approximately 2 h after oral dosing", "result": 80, "unit": "%"}, {"measurement": "Tmax", "setting": "[9]", "result": "60 to 75", "unit": "min"}, {"measurement": "fraction unbound", "setting": "in vitro", "result": 0.734}, {"measurement": "maximal inhibition of aldosterone production at the upper dose", "setting": "[10]; Ang-II- and ACTH-stimulation models in rats and monkeys", "result": "80–90%"}, {"measurement": "decrease in ACTH-stimulated plasma aldosterone response compared with vehicle control", "setting": "[10]; monkey, 150 μg/kg oral, 3 h prior to ACTH", "result": "~90", "unit": "%"}, {"measurement": "inhibition of ACTH-stimulated cortisol synthesis", "setting": "[10]; monkey, 5–150 μg/kg oral", "result": "No significant inhibition"}, {"measurement": "recovery of plasma aldosterone levels", "setting": "[10]; monkey, 5–150 μg/kg oral", "result": "returned to baseline 24 h after dosing"}, {"measurement": "IC50", "setting": "human CYP11B2", "result": "[…]"}]}]}
